Reference: patent publication US20120190752A1, “EXO-S-MECAMYLAMINE METHOD, USE, AND COMPOUND FOR TREATMENT” (Targacept Inc., priority 2009, published 2012)

Test system: subjects with major depressive disorder (MDD) who were inadequate responders to citalopram
Assay: Individual MADRS factor (subscale) scores, exploratory analysis
Format: in vivo, human
Experimental: In more detail, a multi-center double-blind, randomized, placebo-controlled, parallel group, flexible dose titration study of TC-5214 as adjunctive therapy in subjects with major depressive disorder (MDD) who were inadequate responders to citalopram was conducted in centers in the US and India. The study consisted of a screening period, baseline/washout period, open-label phase, double-blind phase, and a follow-up visit. Subject participation in the study could continue for up to 16 weeks of treatment. Following a washout period of up to 28 days for other antidepressants, subjects with MDD and a MADRS total score >/=28 and a Clinical Global Impression-Severity (CGI-S) score >/=4 were enrolled on Day 1 into an open-label citalopram-only phase of the study. This phase lasted 8 weeks, with citalopram (CIT) dose increased from a once-daily dose of 20 mg (Day 1 through Week 4) to 40 mg (Week 4 through Week 8). A total of 579 subjects entered the open-label citalopram phase. At Week 8, subjects who tolerated 40 mg CIT, but whose MADRS score was reduced <50% from baseline and no lower than 17, and CGI-S≧4, were considered inadequate responders. These subjects (n=270) were randomized in a double-blind fashion to receive either placebo or TC-5214-23 as add-on therapy to continued CIT. The double-blind phase of the study also lasted 8 weeks (Week 8 to Week 16). Study drug, TC-5214-23 or placebo, was started at 2 mg daily (1 mg twice per day [BID] dosing), added on to continuing CIT (40 mg PO qd). After 2 weeks of treatment, the dose of TC-5214 could be increased to 4 mg (2 mg BID) or continued unchanged, with up-titration based upon good tolerability and inadequate therapeutic response. After a further 2 weeks, the dose of TC-5214 could be increased again to 8 mg (4 mg BID) if judged appropriate by the investigator, based upon good tolerability and inadequate therapeutic response. At any time during the double-blind phase of the study, placebo or TC-5214-23 could be reduced to the previous dose level following the emergence of unacceptable adverse events (AEs). […] At this follow-up, any signs or symptoms of relapse were evaluated. If a subject was prematurely discontinued from the study between Week 8 and Week 16 for any reason, the investigator was to make every effort to perform all evaluations as per protocol, assuming the subject had reached the end of the double-blind add-on treatment phase. These evaluations were to be made as soon as possible and within 2 weeks of discontinuation. […] There was no meaningful difference in results as a function of age, gender, site, or smoking status. The exploratory analysis assessed the differences in the treatment groups in change from Week 8 (double-blind baseline) to Week 16 for each individual MADRS factor score.

[1] = ITT population, Week 8 (double-blind baseline) to Week 16

Structure (SMILES): CNC1(C)C2CCC(C2)C1(C)C (stereo in doubt) [TC-5214, (S)—N,2,3,3-tetramethylnorbornan-2-amine]
- MADRS item 1 Apparent Sadness: Adjusted Mean Change TC-5214—Placebo (SD) [1]: −0.88 (1.26)
- MADRS item 1 Apparent Sadness: Effect Size [1]: 0.70
- MADRS item 2 Reported Sadness: Adjusted Mean Change TC-5214—Placebo (SD) [1]: −0.88 (1.28)
- MADRS item 2 Reported Sadness: Effect Size [1]: 0.69
- MADRS item 3 Inner Tension: Adjusted Mean Change TC-5214—Placebo (SD) [1]: −0.79 (1.13)
- MADRS item 3 Inner Tension: Effect Size [1]: 0.70
- MADRS item 4 Reduced Sleep: Adjusted Mean Change TC-5214—Placebo (SD) [1]: −0.99 (1.40)
- MADRS item 4 Reduced Sleep: Effect Size [1]: 0.71
- MADRS item 5 Reduced Appetite: Adjusted Mean Change TC-5214—Placebo (SD) [1]: −0.76 (1.30)
- MADRS item 5 Reduced Appetite: Effect Size [1]: 0.58
- MADRS item 6 Concentration Difficulties: Adjusted Mean Change TC-5214—Placebo (SD) [1]: −0.70 (1.20)
- MADRS item 6 Concentration Difficulties: Effect Size [1]: 0.58
- MADRS item 7 Lassitude: Adjusted Mean Change TC-5214—Placebo (SD) [1]: −0.75 (1.20)
- MADRS item 7 Lassitude: Effect Size [1]: 0.63
- MADRS item 8 Inability to Feel: Adjusted Mean Change TC-5214—Placebo (SD) [1]: −0.76 (1.25)
- MADRS item 8 Inability to Feel: Effect Size [1]: 0.61
- MADRS item 9 Pessimistic Thoughts: Adjusted Mean Change TC-5214—Placebo (SD) [1]: −0.74 (1.18)
- MADRS item 9 Pessimistic Thoughts: Effect Size [1]: 0.63
- MADRS item 10 Suicidal Thoughts: Adjusted Mean Change TC-5214—Placebo (SD) [1]: −0.29 (0.61)
- MADRS item 10 Suicidal Thoughts: Effect Size [1]: 0.48
- each MADRS subscale score change from baseline compared with placebo (ITT, result in words): statistically significant decreases (improvements)
